# From patent publication US3948933A, “Pyrrolo[1,2-c]imidazolediones” (priority 1973, dated 1976)
# Read-outs that look alike come from different tables or passages of the source.
# Tests used:
# [1] = system: secondary conditioned response; assay: inhibition of the secondary conditioned response in rats (anxiolytic and tranquilizing properties); format: in vivo; conditions: 60 mg/kg i.p.
# Protocol: (§1) The depressant activity of the new pyrroloimidazole-diones on the C.N.S. of animals is evidenced by testing the compounds in mice according to the Irwin method. The tranquilizing and anxiolytic activity is evaluated on the basis of the secondary conditioned response in rats.
# [2] = acute toxicity (LD50) in mice; conditions: mouse, in vivo, ip
# [3] = system: C.N.S.; assay: Irwin test (Irwin method) in mice, depressant activity on the C.N.S.; format: in vivo; conditions: Mus musculus, ip
# Protocol: as §1
# In experiments in mice with the representative compound α-2-(o-chlorophenyl)-5,6,7,7a-tetrahydro-1,3(2H)-dioxo-1H-pyrrolo[1,2-c]imidazolo-5-carboxylic acid, the following ED50 values were determined for parameters of the Irwin test which are related to sedative and hypnotic activities.
structure (smiles),measurement,setting,value
"CCN(CC)C(=O)C1CCC2C(=O)N(c3ccccc3)C(=O)N12 (single isomer, unassigned) [Example 21, α(+)-5-diethylcarbamyl-2-phenyl-5,6,7,7a-tetrahydro-1H-pyrrolo[1,2-c]imidazole-1,3(2H)-dione]",Deconditioned/Conditioned,[1]; 60 mg/kg,7/10
"CCN(CC)C(=O)C1CCC2C(=O)N(c3ccccc3)C(=O)N12 (single isomer, unassigned) [Example 22, α(-)-5-diethylcarbamyl-2-phenyl-5,6,7,7a-tetrahydro-1H-pyrrolo[1,2-c]imidazole-1,3(2H)-dione]",Deconditioned/Conditioned,[1]; 60 mg/kg,6/10
"CCN(CC)C(=O)C1CCC2C(=O)N(c3ccccc3)C(=O)N12 (stereo not drawn) [Example 12, α-5-diethylcarbamyl-2-phenyl-5,6,7,7a-tetrahydro-1H-pyrrolo[1,2-c]imidazole-1,3(2H)-dione]",Deconditioned/Conditioned,[1],8/10
"CCN(CC)C(=O)C1CCC2C(=O)N(c3cccc(Cl)c3)C(=O)N12 (stereo not drawn) [Example 13, α-5-diethylcarbamyl-2-(m-chlorophenyl)-5,6,7,7a-tetrahydro-1H-pyrrolo[1,2-c]imidazole-1,3(2H)-dione]",Deconditioned/Conditioned,[1],7/10
"CCNC(=O)C1CCC2C(=O)N(c3ccccc3)C(=O)N12 (stereo not drawn) [Example 14, α-5-ethylcarbamyl-2-phenyl-5,6,7,7a-tetrahydro-1H-pyrrolo[1,2-c]imidazole-1,3(2H)-dione]",Deconditioned/Conditioned,[1],7/10
"CCN(CC)C(=O)C1CCC2C(=O)N(c3cccc(C(F)(F)F)c3)C(=O)N12 (centres unmarked) [Example 37, 5-diethylcarbamyl-2-(m-trifluoromethyl)phenyl-5,6,7,7a-tetrahydro-1H-pyrrolo-[1,2-c]imidazole-1,3(2H)-dione]",Deconditioned/Conditioned,[1],10/10
"O=C(O)C1CCC2C(=O)N(c3ccccc3Cl)C(=O)N12 (stereo not drawn) [α-2-(o-chlorophenyl)-5,6,7,7a-tetrahydro-1,3(2H)-dioxo-1H-pyrrolo[1,2-c]imidazolo-5-carboxylic acid]",LD50,[2],~700 mg/kg
same,ED50,"[3]; read-out: ED50, Impairment of motor coordination",100 mg/kg
same,ED50,"[3]; read-out: ED50, Minimal hypnotic dose",200 mg/kg
same,ED50,"[3]; read-out: ED50, Righting reflex",80 mg/kg
same,ED50,"[3]; read-out: ED50, Spontaneous activity",100 mg/kg
